Test [1] in a line: inhibitors of SNCA 5'UTR-driven reporter translation, confirmation, H4 neuroglioma cells, luminescence (AID 1988). The test is classed as functional, cell-based.
Test [2] addresses T1, Short transient receptor potential channel 4 (Mus musculus, UniProt Q9QUQ5).
T1 sequence (Q9QUQ5 whole entry): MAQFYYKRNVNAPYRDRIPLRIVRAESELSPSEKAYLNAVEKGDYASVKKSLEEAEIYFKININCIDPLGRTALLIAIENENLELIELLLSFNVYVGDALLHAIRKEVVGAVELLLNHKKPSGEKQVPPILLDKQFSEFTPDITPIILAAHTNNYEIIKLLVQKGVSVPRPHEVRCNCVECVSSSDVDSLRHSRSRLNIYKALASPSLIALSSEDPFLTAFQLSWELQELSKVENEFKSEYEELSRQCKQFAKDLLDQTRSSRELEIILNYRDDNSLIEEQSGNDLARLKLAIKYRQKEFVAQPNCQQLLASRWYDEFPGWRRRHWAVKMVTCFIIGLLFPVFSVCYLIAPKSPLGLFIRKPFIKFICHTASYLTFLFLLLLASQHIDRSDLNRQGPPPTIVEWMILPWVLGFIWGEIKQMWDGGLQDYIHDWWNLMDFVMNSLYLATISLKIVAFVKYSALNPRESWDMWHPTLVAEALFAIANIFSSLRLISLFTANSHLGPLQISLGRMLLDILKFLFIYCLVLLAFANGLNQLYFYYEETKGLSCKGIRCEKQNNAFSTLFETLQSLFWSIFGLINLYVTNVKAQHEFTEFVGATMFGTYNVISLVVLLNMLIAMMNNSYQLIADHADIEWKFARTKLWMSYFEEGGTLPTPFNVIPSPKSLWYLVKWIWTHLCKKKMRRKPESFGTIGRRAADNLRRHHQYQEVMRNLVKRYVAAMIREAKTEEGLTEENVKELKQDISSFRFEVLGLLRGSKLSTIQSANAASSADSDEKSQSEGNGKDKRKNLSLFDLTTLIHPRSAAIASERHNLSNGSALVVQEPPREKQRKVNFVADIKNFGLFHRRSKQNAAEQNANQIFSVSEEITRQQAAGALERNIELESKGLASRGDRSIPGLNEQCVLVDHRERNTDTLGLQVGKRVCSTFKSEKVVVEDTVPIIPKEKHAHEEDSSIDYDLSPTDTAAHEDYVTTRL
Briefly: mouse TRPC4 channel activators, dose response, cell-based, HEK293 TRPC4/mu-opioid, Fluo-4 calcium (AID 434937). The test is classed as functional.

Test [3] has as its target Type-1 angiotensin II receptor (Homo sapiens, UniProt P30556). Briefly: AT1 receptor antagonists, dose response, selectivity assay for APJ receptor antagonist project, cell-based, uHTS hits (AID 463214).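 Also: antagonist potency against angiotensin II stimulated AT1 response.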 The format is functional.
Test [4] can be described thus: Luminescence Cell-Based Dose Response HTS to Identify Inhibitors of 5'UTR Stem-Loop Driven Prion Protein mRNA Translation in H4 Neuroglioblastoma Cells. [Related pubchem assays: 1827 (Project Summary), 1813 (Primary HTS)]. The test is classed as functional.
The target in test [5] is Heat shock protein HSP 90-alpha (Homo sapiens, UniProt P07900). The format is functional, organism-based.
Test [6] is described as follows: inhibitors of firefly luciferase expression or activity, dose response, H4 neuroglioma cells, luminescence (AID 1990). The format is functional, cell-based.
The next test deals with Beta-galactosidase (Escherichia coli, UniProt Q8VNN2). Description: PubChem AID 485352. The format is functional.
Beta-galactosidase, sequence (Q8VNN2 whole entry): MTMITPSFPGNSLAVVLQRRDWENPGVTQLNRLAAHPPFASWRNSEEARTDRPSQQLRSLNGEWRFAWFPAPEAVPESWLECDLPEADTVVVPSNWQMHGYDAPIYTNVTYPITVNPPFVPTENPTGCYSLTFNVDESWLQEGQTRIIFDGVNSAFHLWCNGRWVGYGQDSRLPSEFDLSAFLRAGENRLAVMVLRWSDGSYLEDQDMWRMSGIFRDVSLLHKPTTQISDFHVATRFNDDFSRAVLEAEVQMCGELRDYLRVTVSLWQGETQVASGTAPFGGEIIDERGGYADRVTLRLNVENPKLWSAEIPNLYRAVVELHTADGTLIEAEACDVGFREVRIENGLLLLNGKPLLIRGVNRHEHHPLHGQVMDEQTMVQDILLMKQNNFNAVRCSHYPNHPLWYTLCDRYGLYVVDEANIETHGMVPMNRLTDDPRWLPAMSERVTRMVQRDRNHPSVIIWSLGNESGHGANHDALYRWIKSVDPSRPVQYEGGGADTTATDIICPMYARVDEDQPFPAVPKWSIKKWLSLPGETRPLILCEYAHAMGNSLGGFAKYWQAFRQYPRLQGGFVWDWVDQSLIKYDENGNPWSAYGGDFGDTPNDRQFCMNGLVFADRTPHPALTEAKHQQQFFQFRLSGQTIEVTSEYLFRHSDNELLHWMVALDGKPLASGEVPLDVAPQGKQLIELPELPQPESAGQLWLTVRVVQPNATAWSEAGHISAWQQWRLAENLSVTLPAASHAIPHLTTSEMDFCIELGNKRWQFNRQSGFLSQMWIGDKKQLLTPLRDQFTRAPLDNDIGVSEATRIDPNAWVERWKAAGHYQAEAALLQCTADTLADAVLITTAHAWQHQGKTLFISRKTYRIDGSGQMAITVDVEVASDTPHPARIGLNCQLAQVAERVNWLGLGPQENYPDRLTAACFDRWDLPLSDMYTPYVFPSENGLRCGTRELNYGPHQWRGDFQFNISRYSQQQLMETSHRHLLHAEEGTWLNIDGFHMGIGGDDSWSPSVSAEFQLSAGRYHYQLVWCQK

These results are taken from ChEMBL document CHEMBL1201862, “PubChem BioAssay data set” (2004).

Broadly, the EC50 is the concentration giving half of the maximal effect. The IC50 is the concentration that inhibits the measured activity by half. Low readings indicate greater potency, high ones weaker potency. Usually AC50 stands for the midpoint of the concentration-response curve, whichever way the signal moves.

The source made the active and inactive calls. Rule as the data show it, for most assays here: actives have a measured EC50 and inactives only a lower limit.

Type-1 angiotensin II receptor, sequence (P30556 whole entry): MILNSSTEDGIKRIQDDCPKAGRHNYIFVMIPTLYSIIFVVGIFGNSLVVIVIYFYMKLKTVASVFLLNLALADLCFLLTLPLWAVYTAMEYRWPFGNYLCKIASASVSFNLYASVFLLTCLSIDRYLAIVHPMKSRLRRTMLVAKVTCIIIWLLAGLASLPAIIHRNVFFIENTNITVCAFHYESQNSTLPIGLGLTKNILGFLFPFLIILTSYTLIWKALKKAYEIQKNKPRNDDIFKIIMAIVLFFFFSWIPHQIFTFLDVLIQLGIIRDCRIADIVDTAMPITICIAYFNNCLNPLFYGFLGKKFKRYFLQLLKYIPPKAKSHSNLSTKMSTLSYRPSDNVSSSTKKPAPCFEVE

For `COc1ccccc1C(=O)NNC(=S)NC(=O)c1cccs1`, the EC50 in test [1] is > 120 µM (not active); in test [2] it was 6.68 µM (active); in test [4], 13.2 µM (active); in test [6], > 120 µM (not active); on Beta-galactosidase, > 40 µM (inactive). Moreover, in test [3], the IC50 is on record as 20.4 µM (not active). Moreover, the AC50 in test [5] was 3.85 µM (active).
